The numbers were not newly measured in patent publication US8329229B2, “Steam distillation of catmint plants” (E I du Pont de Nemours and Company, priority 2006, dated 2012), which cites them from elsewhere.

In this data set the test system is insect. Conditions: see U.S. Ser. No. 05/112,166.

Turning to `CC1COC(=O)C2C(C)CCC12` (stereo not shown) [dihydronepetalactone], the insect repellency result is reported as “exhibits insect repellency”.
